Experimental findings from paper PMC10758951, “mRNA display reveals a class of high-affinity bromodomain-binding motifs that are not found in the human proteome” (The Journal of Biological Chemistry, 2023) are described below.

Data set [1] is described as follows: Peptide solubility (as observed on sample preparation). The class given is physicochemical. To be noted: dissolved in water or experimental buffer; qualitative statement. The method, then: The concentrations of the peptides used in this study were determined by measuring absorbance at 205 nm ([21]) and NMR ([22]) quantification using a known concentration of 4,4-dimethyl-4-silapentane-1-sulfonic acid as a reference. Peptides were first dissolved in either water or experimental buffer, and measurements were made on the soluble peptide remaining in solution following removal insoluble peptide via centrifugation.

Data set [2] concerns the target T1, BRD3–BD1 (Homo sapiens, UniProt Q15059).
T1 construct: BRD3 (BD1: 25–147; BD2: 307–419); His tag (N); biotinylation (Avi-type acceptor, vector pQE80L-Navi) (N); made in house; host or cells: Escherichia coli
Description: Isothermal titration calorimetry (ITC). To be noted: ITC 25 °C, BRD3–BD1 titrated into peptide; fit to binding isotherm. The text has this: (§1) The BDs from human BRD2 (BD1: 65–194; BD2: 347–455), BRD3 (BD1: 25–147; BD2: 307–419), and BRD4 (BD1: 42–168; BD2: 348–464) were expressed in Escherichia coli from pQE80L-Navi (Qiagen) as N-terminally His-tagged and biotinylated proteins for SPR. For other experiments, they were expressed from pGEX-6P (Cytiva) as N-terminal glutathione-S-transferase-fusion proteins. Expression and purification, via affinity chromatography and size-exclusion chromatography, of unlabeled and uniformly ^15N-labeled proteins were carried out as described previously ([11]).
The affinities and stoichiometry for the interaction of BRD3–BD1 with 2AcK and 2AcK.4E peptides were determined using a MicroCal PEAQ ITC (Malvern Instruments). Titrations of BRD3–BD1 (1 mM) into peptide (25–50 μM) were carried out at 25 °C using a 0.2 μl initial injection and 20 to 24 subsequence 1 to 3 μl injections. Data were analyzed using Malvern MicroCal PEAQ ITC Software, using a protein into buffer baseline correction and fitted with a one-site binding model.
(In ITC the heat of successive injections is recorded.)

The target in data set [3] is T2, BRD4–BD2 (Homo sapiens, UniProt O60885).
T2 construct: BRD4 (BD1: 42–168; BD2: 348–464); His tag (N); biotinylation (Avi-type acceptor, vector pQE80L-Navi) (N); made in house; host or cells: Escherichia coli
The data set can be described thus: SPR binding of peptides to BET bromodomains. To be noted: SPR 4 °C; biotinylated BD immobilized on biotin CAP chip, peptide flowed; 20 mM Mes pH 6.5, 150 mM NaCl, 0.05% Tween-20; steady state 1:1 fit; geometric mean of minimum three measurements.
Text: as §1
(§2) Measurements were conducted on a T200 (Cytiva) and data analyzed using the Biacore Insight Evaluation Software. Experiments were performed at 4 °C in multicycle kinetics mode and fit using the equilibrium steady state affinity model (1:1 Langmuir binding isotherm). For experiments measuring the binding of the 2AcK peptide, biotinylated BET BDs were immobilized on a biotin CAP chip (Cytiva) with a target density of ∼1000 to 2000 RU and peptide was flowed over the chip. A buffer comprising 20 mM Mes (pH 6.5), 150 mM NaCl, 0.05% (v/v) Tween-20 was used as the running buffer. For experiments measuring the binding of 1AcK.4E and 2AcK.4E, C-terminally biotinylated variants of the peptides were immobilized on a CM5 chip (Cytiva), which had been amine-coupled with streptavidin, to a target density of ∼50 to 100 RU and unlabeled BET BDs were flowed over the chip. A buffer comprising 20 mM Hepes (pH 7.5), 150 mM NaCl, and 0.05% (v/v) Tween-20 was used as the running buffer.
Background: In SPR one partner is held on a chip, and binding of the other changes the refractive index at the surface.

Data set [4] concerns the target T3, BRD3–BD2 (Homo sapiens, UniProt Q15059).
T3 construct: BRD3 (BD1: 25–147; BD2: 307–419); His tag (N); biotinylation (Avi-type acceptor, vector pQE80L-Navi) (N); made in house; host or cells: Escherichia coli
Description: SPR binding of peptides to BET bromodomains. The conditions noted are these: peptide flowed.
Text: as §1, §2

The target of data set [5] is T4, BRD2–BD2 (Homo sapiens, UniProt P25440).
T4 construct: human BRD2 (BD1: 65–194; BD2: 347–455); His tag (N); biotinylation (Avi-type acceptor, vector pQE80L-Navi) (N); made in house; host or cells: Escherichia coli
The data set can be described thus: SPR binding of peptides to BET bromodomains. To be noted: peptide flowed.
Text: as §1, §2

Data set [6] concerns the target BRD3–BD1, BRD4–BD1, and BRD2–BD1. Description: SPR, stated jointly for the BD1 domains. The class given is binding, human. The conditions noted are these: range over BRD3–BD1, BRD4–BD1 and BRD2–BD1; BD immobilized, peptide flowed; equilibrium steady state affinity analysis; read-out: Affinities (KD) for the three BD1 domains, SPR.
Text: as §1
Measurements were conducted on a T200 (Cytiva) and data analyzed using the Biacore Insight Evaluation Software. Experiments were performed at 4 °C in multicycle kinetics mode and fit using the equilibrium steady state affinity model (1:1 Langmuir binding isotherm). For experiments measuring the binding of the 2AcK peptide, biotinylated BET BDs were immobilized on a biotin CAP chip (Cytiva) with a target density of ∼1000 to 2000 RU and peptide was flowed over the chip. A buffer comprising 20 mM Mes (pH 6.5), 150 mM NaCl, 0.05% (v/v) Tween-20 was used as the running buffer. […]

The mark [7] stands for this setting: Fig. 2A, one titration, fit to 1:1 binding model, BD immobilized, Mes pH 6.5, 4 °C.
The mark [8] stands for this setting: SPR 4 °C, biotinylated BD immobilized on biotin CAP chip, 20 mM Mes pH 6.5, 150 mM NaCl, 0.05% Tween-20, steady state 1:1 fit, geometric mean of minimum three measurements.

pKd: −log10 of the molar value.

T3 sequence (Q15059 307-419): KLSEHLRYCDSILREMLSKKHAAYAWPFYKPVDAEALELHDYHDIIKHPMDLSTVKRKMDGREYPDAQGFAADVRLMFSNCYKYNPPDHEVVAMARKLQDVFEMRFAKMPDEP
T4 sequence (P25440 347-455): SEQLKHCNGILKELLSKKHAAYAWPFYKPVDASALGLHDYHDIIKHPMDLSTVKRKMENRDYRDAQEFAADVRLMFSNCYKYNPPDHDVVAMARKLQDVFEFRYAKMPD
T1 sequence (Q15059 25-147): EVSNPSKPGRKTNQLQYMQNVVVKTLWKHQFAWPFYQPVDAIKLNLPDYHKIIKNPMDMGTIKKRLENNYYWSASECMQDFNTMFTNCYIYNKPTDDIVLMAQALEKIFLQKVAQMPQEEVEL

Turning to ALLLAKLYHF [1AcK], the “Solubility of the peptide (in words)” value in data set [1] is “not soluble at concentrations high enough to allow measurements to be made”.
In the case of “Ac-AQRSLK(Ac)LLK(Ac)HLYH-NH2 (C-terminus assumed) [2AcK]”, the “N value (stoichiometry) from ITC fit” value in data set [2] is approximately 2.5. In data set [3], the “KD (SPR) BRD4–BD2” value was “a small degree of binding observed”. The “KD on plot, typical SPR titration, BRD3-BD2” value in data set [4] (setting [7]) was “No binding”. In data set [4] (setting [8]), the “KD (SPR) BRD3–BD2” value is given as “no measurable binding”. In data set [5] (setting [7]), the “KD on plot, typical SPR titration, BRD2-BD2” value was “No binding”. The “KD (SPR) BRD2–BD2” value in data set [5] (setting [8]) was “no measurable binding”. In data set [1], the “Solubility of the peptide (in words)” value is given as “slightly more soluble”. Moreover, the pKd (commonly −log10 of the Kd, conventionally taken in molar units) in data set [6] is 5.70 to 6.00.
